Data on 90 compounds can be found in a melting point compilation (Tetko et al.; mined from patent text by program, amines drawn as free bases though some values may be those of a salt).

The melting point is the temperature of the solid-liquid transition.

Bounds are passed on as bounds.

Compound `Cn1c(SCCCN2CCc3ccc(NS(C)(=O)=O)cc3C2)nnc1-c1ccccc1` showed a melting point of 90 °C.

Consider `CCCn1c(N)cc(=O)n(CC2CCCCC2)c1=O`, for which the melting point fell in the range of 121 to 122 °C.

Regarding `Cc1ccc(CCc2ccnc(N)c2N)cc1`, the melting point is 119 to 121 °C.

`Cc1ccc(-c2nc(Cc3cccc(CBr)c3)c(C)o2)cc1` returned a melting point of 101 to 102 °C.

In the case of `CCCCc1c(C)c2ccc(OCCCN3CCN(Cc4ccc(Cl)cc4)CC3)cc2[nH]c1=O`, the melting point is 148 to 149 °C.

Regarding `CCC(C)c1nn(-c2ccc(C(F)(F)F)cn2)cc1CO` (stereo not given), the melting point was 76 to 77 °C.

`COc1cc2c(c3c1OC(C)(C)C3)C(c1ccn(Cc3ccc(C(=O)Nc4ccncc4)cc3)c(=O)c1)=NC(C)(C)C2`: the melting point is 144 to 146 °C.

For the compound `O=C(O)CCCCCCn1c(-c2ccccc2)nc(-c2ccccc2)c1-c1ccccc1`, the melting point was 149 to 150 °C.

Compound `Cc1c(C#N)c(NC(=O)c2ccccc2)n(C(C)c2ccccc2)c1C` (stereo not given) returned a melting point of 218 to 221 °C.

Turning to `O=S(=O)(c1ccccc1)c1c(-c2ccc(Cl)cc2)[nH]c(Br)c1Br`, the melting point is over 200 °C.

In the case of `CCCCCCCCCCCCCCCC(CC)C1OC(=O)C(O)=C1O` (stereo not given), the melting point was in the range of 114 to 117 °C.

As for `Cc1ccc(Cl)c(NS(=O)(=O)C2(NC=O)N=CN=N2)c1Cl` (stereo not given), the melting point was 275 to 279 °C.

Consider `COc1cc(C#N)c2nc(-c3ccc(OC)c(F)c3)cc(O)c2c1`, for which the melting point was in the range of 218 to 220 °C.

`COCCc1nc2c(N)nc3ccccc3c2n1CCOCCCc1ccccc1`: the melting point was 104 °C.

Turning to `Cc1nc2cccc3n(CCCCNS(=O)(=O)CC(F)(F)F)c(=O)c1n23`, the melting point is 116 to 118 °C.

Consider `CCCOc1c(OC)cc(C(=O)CCC(=O)c2cc(OC)c(OC)c(OC)c2)cc1SC`, for which the melting point was in the range of 113 to 114 °C.

`CCN1CCN(CC)C2SC(=C(C(=O)OC(C)C)C(=O)OC(C)C)SC21` (stereo not given) gave a melting point of 84 to 86 °C.

`CCCCCCCOc1cc2c(cc1C=Cc1ccc(C(=O)O)cc1)C(C)(C)CCC2(C)C` registered a melting point of 153 to 155 °C.

For `CCOC(=O)N(C)n1cccc1C(=O)c1ccccc1`, the melting point lay in the range of 50 to 52 °C.

As for `CCNS(=O)(=O)c1ccc(C2=C(c3ccccc3)C(=O)C(C)(C)O2)cc1Cl`, the melting point was 72 to 73 °C.

On to `OCCC(O)(c1ccc(Br)cc1)c1cccnc1` (stereo not given), for which the melting point is 130 to 132 °C.

In the case of `COC(N)C(=O)NC(=O)OCc1ccccc1` (stereo not given), the melting point was in the range of 110 to 112 °C.

The compound `Cc1nc(Nc2ccc(Cl)cc2)sc1-c1nc2ccccc2c(=O)n1-c1ccccc1Cl` had a melting point of 237 to 238 °C.

In turn, `CC(C)(C)c1cc(C(O)C#Cc2ccc(C(=O)O)cc2)cc(C(C)(C)C)c1OCOCC[Si](C)(C)C` (stereo not given) returned a melting point of 155 to 156 °C.

`Cc1ccc(CCCNCC(O)c2cccc(C(F)(F)F)c2)cc1` (stereo not given) had a melting point of 52 to 55 °C.

Regarding `CCOCCOc1ccc(C(=O)Oc2ccc(C#N)c(F)c2)cc1`, the melting point lay in the range of 62.4 to 63.2 °C.

In turn, `Cc1ccc(N(Cc2ccccc2)c2ccccc2)cc1` registered a melting point of 85 to 86 °C.

Turning to `COc1ccc2[nH]c(CC(C)C)c(/C=C/C(=O)c3ccncc3)c2c1`, the melting point lay within 217 to 218 °C.

`CCc1cnc(CSc2cnc(N)s2)o1` registered a melting point of 119 to 120 °C.

As for `COc1cc(NS(=O)(=O)c2ccc(Cl)cc2)c(C(=O)O)cc1OC`, the melting point was 168 to 169 °C.

For the compound `CC(C)(C)[Si](C)(C)Oc1ccc(NC(=O)CBr)cc1`, the melting point lay within 112 to 113 °C.

In turn, `C[Si](C)(C)c1cccc(Br)c1C(=O)O` yielded a melting point of 139 to 141 °C.

On to `C=C1SC(=O)N(c2ccc3cc(-c4ccc(O)c(C56CC7CC(CC(C7)C5)C6)c4)ccc3c2)C1=O`, for which the melting point lay in the range of 299 to 302 °C.

On to `CC(=O)Oc1c(C(C)C)cc(C(=O)Nc2cnc3c(C)cc(C)cc3c2-c2ccccc2Cl)cc1C(C)C`, for which the melting point fell in the range of 195 to 196 °C.

As for `COc1ccc2ccc(N3C(=O)c4ccccc4C3CC(O)CCC(C)C)nc2n1` (stereo not given), the melting point turned out to be 110 °C.

`CN(C)CC/C=C1/c2ccccc2COc2ccc(C(=O)O)cc21` gave a melting point of 121 to 123 °C.

Take `C#CCc1c(C)nc2c(NCc3ccccc3C)cccn12`: the melting point fell in the range of 126 to 128 °C.

Turning to `Cn1cc(-c2cncc(OC3SCC(O)C(O)C3O)c2)cn1` (stereo not given), the melting point was 216 °C.

Turning to `c1cc(N=C2SCC3Cc4sccc4CN23)c2ccncc2c1` (racemic), the melting point turned out to be 198 °C.

The compound `COCOc1cc(-n2c(OC)nc(C(F)(F)F)cc2=O)c(F)cc1Cl` registered a melting point of 97 to 98 °C.

`Cn1c(C(F)(F)F)c(Cl)c(=O)n(-c2c(F)ccc3nc(Cl)sc23)c1=O` had a melting point of 81 to 83 °C.

On to `O=c1[nH]c(CCCN2CCCC2)cc2c(O)cccc12`, for which the melting point lay within 222 to 225 °C.

In the case of `COC(=O)C(=CN(C)C)n1ccc2ccc(-c3nccc(-c4ccccc4)n3)cc21`, the melting point is 168 °C.

`CC(C#N)c1ccc(O)c([N+](=O)[O-])c1` (stereo not given) displayed a melting point of 78 to 81 °C.

For `COc1ccc(-c2ccnc3c(C(=O)c4cccs4)cnn23)cc1NC(=O)c1ccccc1`, the melting point was 201 to 203 °C.

`COc1ccc2c(C(=O)O)cccc2c1SC(F)(F)F`: the melting point fell in the range of 204 to 205 °C.

As for `CC(=O)OC1CSC(Oc2cccc(-c3ccc(C)o3)c2)C(OC(C)=O)C1OC(C)=O` (stereo not given), the melting point is 132 °C.

`CC(C)C(=N)Nc1cc(F)ccc1N1CCOCC1` had a melting point of 142 °C.

`Cc1cc(NC2=NCCN2)n(C)n1` yielded a melting point of 167 to 169 °C.

As to `O=C1COc2ccc(-c3cnn(CC(F)(F)F)c3-c3ccc(F)cc3)cc2N1`, the melting point came out at 227 °C.

`O=C(O)c1cnn(CC(F)(F)F)c1` had a melting point of 160 to 162 °C.

With `C=C(OCC1(N2CCN(C(=O)OC(C)(C)C)CC2)Cc2ccccc2C1)c1cc(C)cc(C)c1`, the melting point was found to be 128 °C.

As for `CC1CCCN(Cc2cccc(OCCCCNc3nnc(N)s3)c2)C1` (stereo not given), the melting point is 123 to 124 °C.

As to `NS(=O)(=O)c1cc2c(cc1Cl)NCN(CCO)S2(=O)=O`, the melting point lay in the range of 199 to 203 °C.

Compound `CCN1CC(=O)N(c2c(C)cccc2Cl)C1=S` gave a melting point of 124 to 126 °C.

In turn, `COc1ccc(-c2cc(C(=O)O)n(C)n2)cc1` yielded a melting point of 190 to 193 °C.

`CC(C)(C)NCC(O)COc1ccc(F)cc1-c1ccc(=S)[nH]n1` (stereo not given): the melting point fell in the range of 170 to 173 °C.

In the case of `CN(C)C/C=C/C(=O)Nc1cc2c(Nc3ccc(F)c(Br)c3)ncnc2cn1`, the melting point was in the range of 163 to 166 °C.

`CCOC(=O)c1cc2cc(OCCNC[C@H](O)COc3ccccc3)ccc2s1` returned a melting point of 99 to 100 °C.

Compound `O=C1OC(CO)CN2C1=Cc1ccsc1S2(=O)=O` (stereo not given) showed a melting point of 210 to 212 °C.

Regarding `CSc1cc(=O)c2occc2s1`, the melting point lay in the range of 149 to 150 °C.

`CCCc1nc2c(N)nc3ccc(-c4cccc(S(C)(=O)=O)c4)cc3c2s1`: the melting point was in the range of 252 to 255 °C.

Compound `O=S(=O)(c1ccccc1)c1ccc(Oc2ccc(Cl)c(Cl)c2)cc1` returned a melting point of 145 to 146 °C.

In turn, `CCc1cccc2c1N(CC(=O)N1CC3CCC(CC3)C1)C(=O)C(NC(=O)Nc1cccc(-c3nnn[nH]3)c1)N=C2c1ccccc1F` (stereo not given) registered a melting point of 226 to 232 °C.

`COc1ccc(CN2C(=O)C3(COc4cc5c(C)noc5cc43)c3ccccc32)cc1` (stereo not given): the melting point was in the range of 183 to 184 °C.

On to `O=c1[nH]c(=O)n(CCCCN2CCC(OC(c3ccccc3)c3ccccc3)CC2)c2ccccc12`, for which the melting point was 131 to 133 °C.

On to `COc1ccc2cc(CNCc3ccccc3)ccc2c1`, for which the melting point was 45 to 53 °C.

`CCOP(=O)(OCC)C(CCc1cc(C)nc2c(I)c(-c3ccccc3)nn12)P(=O)(OCC)OCC` displayed a melting point of 81 to 82 °C.

Turning to `[N-]=[N+]=NC[C@@H]1CN(c2cc(F)c(N3CNC(=O)C3)c(F)c2)C(=O)O1`, the melting point was 186 to 188 °C.

`COC(=O)c1cccc(OC)c1S(=O)(=O)Cl` yielded a melting point of 106 to 108 °C.

On to `O=c1[nH]c2cc(C(F)(F)F)c([N+](=O)[O-])c(Cl)c2[nH]c1=O`, for which the melting point was 343 to 347 °C.

Turning to `CCCNC(=O)Nc1ccc(C(=O)c2ncc3ccccn23)cc1C(=O)OC`, the melting point stood at 205 °C.

`Cc1cnc(C)c(NCCc2c[nH]cn2)n1` registered a melting point of 164 to 165 °C.

`CC(C)(C)c1nc(-c2nn(-c3ccc(F)cc3F)c3c2C2CCC3C2)no1` (stereo not given) showed a melting point of 119 to 121 °C.

`COc1ccccc1NC(=O)Nc1cccc(-n2c(=O)c(CCC(=O)N(C)C)nc3cccnc32)c1`: the melting point lay within 242 to 245 °C.

`CCOC(=O)C(=O)Nc1c([N+](=O)[O-])cc(C(C)=O)c2c1CCCC2` had a melting point of 120 to 121 °C.

Compound `CC(C)NS(=O)(=O)Oc1ccc(F)cc1` showed a melting point of 145 to 146 °C.

In turn, `Clc1cccc2c(CN3CC=C(c4ccc5[nH]ccc5c4)CC3)n[nH]c12` displayed a melting point of 164 to 167 °C.

`CC(=O)N1CC(CCN2CC=CCC2c2ccc(C(F)(F)F)cc2)c2ccccc21` (stereo not given) gave a melting point of 85 to 88 °C.

The compound `O=C(c1ccccc1)c1cc2ccccc2o1` displayed a melting point of 88 to 90 °C.

Compound `CC(C)(C)NNC(=O)c1cccc(Cl)c1` yielded a melting point of 116 to 118 °C.

The compound `O=C(O)C1CCC2C(=O)N(c3ccccc3)C(=S)N12` (stereo not given) gave a melting point of 230 °C.

For `O=[N+]([O-])c1cc(CO)ccc1OCc1ccccc1`, the melting point lay in the range of 76 to 77 °C.

As for `Cc1[nH]nc(Oc2c(Cl)cc(C(F)(F)F)cc2Cl)c1Cl`, the melting point lay within 156 to 158 °C.

Turning to `Nc1ccc(NCCO)c(S(=O)(=O)CCO)c1`, the melting point came to 130 °C.

`COC(=O)CCCc1cc2cc(C(F)(F)F)ccc2[nH]1` had a melting point of 115 °C.

For `O=C1c2c(Cl)cccc2-n2c1nc1ccccc1c2=O`, the melting point lay within 294 to 296 °C.

The compound `COc1ccc(CN(C)CCc2ccc(NC(=O)c3cccc4c(=O)c5cccc(C)c5[nH]c34)cc2)cc1OC` displayed a melting point of 119 °C.

In the case of `O=C(NCCc1ccccc1)C1CCc2ccccc2C1` (stereo not given), the melting point was 86 to 87 °C.

`CCCCCCC(Oc1ccc(C2=CCCCC2)cc1)C(=O)O` (stereo not given) showed a melting point of 70 to 71 °C.
